Structures are written as SMILES.

Experimental findings from patent US12448382B2, “Heterocyclic compounds for mediating tyrosine kinase 2 activity” (GUANGZHOU INNOCARE PHARMA TECH CO., LTD., priority 2019, dated 2025) are described below.

Assay [1] addresses T1, human recombinant JAK2 protein (Homo sapiens, UniProt O60674).
T1 construct: purchased Carna Biosciences 08-045
Kind of assay: JAK2 Inhibition Assay (HTRF kinase assay). The assay is classed as biochemical. As to conditions: human recombinant JAK2, 2.5 μM ATP substrate solution. Put shortly:
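Recombinant human JAK2 was preincubated 15 min at room temperature with compound in buffer containing 5 mM MgCl2, 1 mM DTT and 0.01% Brij35. Substrate solution (2.5 μM ATP, 0.25 μM biotinylated TK substrate) was then added for 30 min. Phosphorylation was detected by HTRF (665/620 nm ratio; no-enzyme = 100% inhibition), and IC50 was fitted from an 8-point, 4-fold series.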
For orientation: In TR-FRET formats the signal depends on donor and acceptor labels being close together.

Assay [2] deals with T2, human recombinant TYK2 protein (Homo sapiens, UniProt P29597).
T2 construct: purchased Carna Biosciences 08-147
T2 sequence (P29597 871-1187 limits assumed): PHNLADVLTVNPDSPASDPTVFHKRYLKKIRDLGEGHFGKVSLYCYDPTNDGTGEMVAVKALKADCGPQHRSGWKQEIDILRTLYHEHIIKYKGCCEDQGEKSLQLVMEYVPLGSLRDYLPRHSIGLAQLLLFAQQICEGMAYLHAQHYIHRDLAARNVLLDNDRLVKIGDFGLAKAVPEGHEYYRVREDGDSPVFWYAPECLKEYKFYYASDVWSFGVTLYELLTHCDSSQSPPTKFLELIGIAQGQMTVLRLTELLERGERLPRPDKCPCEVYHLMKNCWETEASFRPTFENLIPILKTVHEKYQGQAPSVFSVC
Briefly: TYK2 Inhibition Assay (HTRF kinase assay). It counts as biochemical. As to conditions: human recombinant TYK2, 11.25 μM ATP substrate solution. Put shortly: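 Recombinant human TYK2 was pre-incubated 15 min at room temperature with compound, then reacted for 40 min with biotinylated tyrosine-kinase substrate and ATP (substrate solution 11.25 μM ATP, 0.5 μM substrate; 5 mM MgCl2, 0.01% Brij35). Phosphorylation was read by HTRF 665/620 ratio, normalised to no-enzyme and no-compound controls, and IC50 was fitted from 8 4-fold dilutions.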

Assay [3] concerns IL-12-induced IFN-γ secretion in NK92 cells. Kind of assay: Inhibition of IL-12-induced IFN-γ Secretion in NK92 Cells (ELISA). It counts as cell-based, human. To be noted: Homo sapiens, 24 hours incubation, 8 concentration points, read-out: IC50 (NK92_IL12/IFNγ). The protocol: Inhibition of IL-12-induced IFN-γ Secretion in NK92 Cells
The effect of the compounds of the present invention on IFN-γ secretion induced by IL-12 in NK92 cells was evaluated by an enzyme-linked immunosorbent assay (ELISA).
IL-12 receptor is mainly expressed in activated T-cells, NK cells (NK92 is a NK cell line), DC cells, and B-cells. When binding to IL-12, it activates JAK2/TYK2 signal transduction pathway within NK cells and T lymphocytes, thereby inducing secretion of IFN-γ.
The experimental method is generally described below:
The test compound was dissolved in DMSO to 2.5 mM, followed by a serial 4-fold dilution with DMSO to a minimum concentration of […]. Each concentration was further diluted 50-fold with an FBS-free MEMα medium (Gibco, 12561-056).
NK92 cells (Nanjing Cobioer, CBP60980) were cultured in a complete MEMα medium containing 12.5% FBS (Ausbian, VS500T), 12.5% horse serum (Gibco, 16050-122), 0.02 mM folic acid (Sigma, F8758), 0.2 mM inositol (Sigma, 17850), 0.55 mM β-mercaptoethanol (Gibco, 21985-023), 200 U/mL IL-2 (R&D Systems, 202-1L), and 100 U/mL penicillin (Thermofisher, 15140122). When covering 80-90% of the culture container surface, the cells were dispersed and plated on a 96-well plate (Thermofisher, 167425) with 100,000 cells per well (80 μL of the complete MEMα medium without IL-2). The 96-well plate was then incubated overnight in a 37° C./5% CO2 incubator.
After overnight incubation, 10 μL of the test compound and 10 μL of 50 ng/mL IL-12 (R & D Systems, 219-1L) were added to each well and mix gently, and the 96-well plate was incubated in the 37° C./5% CO2 incubator for additional 24 hours. The plate as centrifuged at 800 rpm for 10 minutes at room temperature and 50 μL of the supernatant from each well was transferred to another 96-well plate (Sigma, CLS3695) coated with anti-IFN-γ antibody. The amount of IFN-γ secretion was detected following the instruction from the Human IFN-γ DuoSet ELISA kit (R & D Systems, DY285B). In the experiment, the group with IL-12 and the test compound being replaced with the MEMα medium was the non-stimulated control group (100% inhibition), and the group with IL-12 and 0.2% DMSO was the stimulated group (0% inhibition). The percentage of inhibition on IL-12 induced IFN-γ secretion in NK-92 cells by the test compound was calculated using the following formula: Percentage of inhibition=100−100*(signalcompound−signalnon-stimulated control)/(signalstimulated control−signalnon-stimulated control)
The IC50 value of the test compound was calculated front 8 concentration points using the XLfit software (ID Business Solutions Ltd., UK) by the following formula: Y=Bottom+(Top−Bottom)/(1+10^((log IC50−X)×slope factor))
Where Y was the percentage of inhibition, X was the logarithm of the concentration of the test compound, Bottom was the bottom plateau value of the S-shaped curve, Top was the top plateau value of the S-shaped curve, and slope factor was the slope coefficient of the curve.
Background: In an ELISA, binding on a coated surface is turned into a signal by an enzyme label.

T1 sequence (O60674 826-1132 limits assumed): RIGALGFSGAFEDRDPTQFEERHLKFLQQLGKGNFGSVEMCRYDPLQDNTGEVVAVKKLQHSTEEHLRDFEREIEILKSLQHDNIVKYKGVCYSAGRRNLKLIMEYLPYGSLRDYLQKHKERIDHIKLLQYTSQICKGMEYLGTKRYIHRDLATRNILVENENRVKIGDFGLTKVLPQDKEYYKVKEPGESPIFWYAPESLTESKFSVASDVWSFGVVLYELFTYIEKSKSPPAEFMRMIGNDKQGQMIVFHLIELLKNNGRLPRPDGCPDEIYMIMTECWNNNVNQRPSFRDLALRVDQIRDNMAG

On to `Cn1cc(Nc2ncc(Cl)c(N3C[C@]4(C)CN(C(=O)C5(O)CC5)C[C@]4(C)C3)n2)cn1` [Compound 43, ((3aR,6aS)-5-(5-chloro-2-((1-methyl-1H-pyrazol-4-yl)amino)pyrimidin-4-yl)-3a,6a-dimethylhexahydropyrrolo[3,4-c]pyrrol-2(1H)-yl)(1-hydroxycyclopropyl)methanone], for which the results for the IC50 in assay [1], in assay [2] and in assay [3] were 18 nM, 4.5 nM and 3390 nM, respectively.

Turning to `Cn1cc(Nc2ncc(Cl)c(N3C[C@]4(C)CN(CC5CC5)C[C@]4(C)C3)n2)cn1` [Compound 84, 5-chloro-4-((3aR,6aS)-5-(cyyclopropylmethyl)-3a,6a-dimethylhexahydropyrrolo[3,4-c]pyrrol-2(1H)-yl)-N-(1-methyl-1H-pyrazol-4-yl)pyrimidin-2-amine], the IC50 in assay [1] came out at 477 nM; in assay [2], 186 nM; in assay [3], 8750 nM.

`C[C@@]12CN(C(=O)CC#N)C[C@]1(C)CN(c1nc(Nc3cnn(CCO)c3)ncc1Cl)C2` [Compound 31, 3-((3aR,6aS)-5-(5-chloro-2-((1-(2-hydroxyethyl)-1H-pyrazol-4-yl)amino)pyrimidin-4-yl)-3a,6a-dimethylhexahydropyrrolo[3,4-c]pyrrol-2(1H)-yl)-3-oxopropanenitrile]: the results for the IC50 in assay [1], in assay [2] and in assay [3] were 0.4 nM, 0.5 nM and 2780 nM, respectively.

Regarding `Cn1cc(Nc2ncc(Cl)c(N3C[C@]4(C)CN(C(=O)c5ccccn5)C[C@]4(C)C3)n2)cn1` [Compound 47, ((3aR,6aS)-5-(5-chloro-2-((1-methyl-1H-pyrazol-4-yl)amino)pyrimidin-4-yl)-3a,6a-dimethylhexahydropyrrolo[3,4-c]pyrrol-2(1H)-yl)(pyridin-2-yl)methanone], the IC50 in assay [1] stood at 51 nM; in assay [2] it was 13 nM; in assay [3] it was 7920 nM.

Consider `C[C@@]12CN(C(=O)C3CC3)C[C@]1(C)CN(c1nc(Nc3ccc(C(=O)N4CCOCC4)nc3)ncc1Cl)C2` [Compound 53, ((3aR,6aS)-5-(5-chloro-2-((6-(morpholine-4-carbonyl)pyridin-3-yl)amino)pyrimidin-4-yl)-3a,6a-dimethylhexahydropyrrolo[3,4-c]pyrrol-2(1H)-yl)(cyclopropyl)methanone], for which the results for the IC50 in assay [1], in assay [2] and in assay [3] were 3.8 nM, 3.2 nM and 918 nM, respectively.

As for `C[C@@]12CN(C(=O)C3CC3)C[C@]1(C)CN(c1nc(Nc3cnn(CC#N)c3)ncc1Cl)C2` [Compound 33, 2-(4-((5-chloro-4-((3aR,6aS)-5-(cyclopropanecarbonyl)-3a,6a-dimethylhexahydropyrrolo[3,4-c]pyrrol-2(1H)-yl)pyrimidin-2-yl)arnino)-1H-pyrazol-1-yl)acetonitrile], the results for the IC50 in assay [1], in assay [2] and in assay [3] were 6.2 nM, 2.9 nM and 215 nM, respectively.

For `Cc1cnc(Nc2cnn(C)c2)nc1N1C[C@@H]2CN(Cc3ccno3)C[C@]2(C)C1` (racemic) [Compound 73, cis-4-(5-(isoxazol-5-ylmethyl)-3a-methylhexahydropyrrolo[3,4-c]pyrrol-2(1H)-yl)-5-methyl-N-(1-methyl-1H-pyrazol-4-yl)pyrimidin-2-amine], the IC50 was 6 nM in assay [1], 3.3 nM in assay [2] and 278 nM in assay [3].

On to `Cn1cc(Nc2ncc(Cl)c(N3C[C@]4(C)CN(Cc5cn[nH]c5)C[C@]4(C)C3)n2)cn1` [Compound 79, 4-((3aR,6aS)-5-((1H-pyrazol-4-yl)methyl)-3a,6a-dimethylhexahydropyrrolo[3,4-c]pyrrol-2(1H)-yl)-5-chloro-N-(1-methyl-1H-pyrazol-4-yl)pyrimidin-2-amine], for which the IC50 in assay [1] was 40 nM; in assay [2], 51 nM; in assay [3], 3970 nM.

`Cn1cc(Nc2ncc(Cl)c(N3C[C@]4(C)CN(c5ccno5)C[C@]4(C)C3)n2)cn1` [Compound 66]: the IC50 is 0.3 nM in assay [1], 0.2 nM in assay [2] and 66 nM in assay [3].

As for `Cn1cc(Nc2ncc(Cl)c(N3C[C@H]4CN(C(=O)CC#N)C[C@]4(C)C3)n2)cn1` (racemic) [Compound 100, trans-3-(5-(5-chloro-2((1-methyl-1H-pyrazol-4-yl)amino)pyrimidin-4-yl)-3a-methylhexahydropyrrolo[3,4-c]pyrrol-2(1H)-yl)-3-oxopropanenitrile], the IC50 in assay [1] was 5 nM; in assay [2], 2.2 nM; in assay [3], 763 nM.

For `CCS(=O)(=O)N1C[C@]2(C)CN(c3nc(Nc4cnn(C)c4)ncc3Cl)C[C@]2(C)C1` [Compound 41, 5-chloro-4-((3aR,6aS)-5-(ethylsulfonyl)-3a,6a-dimethylhexahydropyrrolo[3,4-c]pyrrol-2(1H)-yl)-N-(1-methyl-1H-pyrazol-4-yl)pyrimidin-2-amine], the IC50 amounted to 1.7 nM in assay [1], 1.3 nM in assay [2] and 635 nM in assay [3].

For `C[C@@]12CN(C(=O)C3CC3)C[C@]1(C)CN(c1nc(Nc3cnn(CCO)c3)ncc1F)C2` [Compound 13], the IC50 stood at 170 nM in assay [1], 8.5 nM in assay [2] and 4140 nM in assay [3].

Consider `Cn1cc(Nc2ncc(Cl)c(N3C[C@@]4(C)CN(S(C)(=O)=O)C[C@@]4(C)C3)n2)cn1` [Compound 34, 5-chloro-4-((3aR,6aS)-3a,6a-dimethyl-5-(methylsulfonyl)hexahydropyrrolo[3,4-c]pyrrol-2(1H)-yl)-N-(1-methyl-1H-pyrazol-4-yl)pyrimidin-2-amine], for which the values for the IC50 in assay [1], in assay [2] and in assay [3] were 1.8 nM, 0.6 nM and 287 nM, respectively.

For the compound `Cn1cc(Nc2nccc(N3C[C@@H]4CN(Cc5ccno5)C[C@]4(C)C3)n2)cn1` (relative stereo) [Compound 69, cis-4-(5-(isoxazol-5-ylmethyl)-3a-methylhexahydropyrrolo[3,4-c]pyrrol-2(1H)-yl)-N-(1-methyl-1H-pyrazol-4-yl)pyrimidin-2-amine], the results for the IC50 in assay [1], in assay [2] and in assay [3] were 156 nM, 98 nM and 7060 nM, respectively.

With `Cc1cnc(Nc2cnn(C)c2)nc1N1C[C@@H]2CN(C(=O)CC#N)C[C@]2(C)C1` (racemic) [Compound 71, cis-3-(3a-methyl-5-(5-methyl-2-((1-methyl-1H-pyrazol-4-yl)amino)pyrimidin-4-yl)hexahydropyrrolo[3,4-c]pyrrol-2(1H)-yl)-3-oxopropanenitrile], the IC50 in assay [1] is 3.3 nM; in assay [2], 1.2 nM; in assay [3] it was 3540 nM.
